From patent US5420289A, “Substituted indole-, indene-, pyranoindole- and tetrahydrocarbazole-alkanoic acid derivatives as inhibitors of PLA2 and lipoxygenase” (American Home Products Corporation, priority 1993, dated 1995)
Structures can show the parent of a compound that is named as a salt. Blank lines part the entries; values can stand above or below the molecule they belong to.

Assays:
[1] = system: 5-lipoxygenase in human whole blood; experiment: inhibition of 5-lipoxygenase in human whole blood (Example 79); format: cell-based; details: for % Inhibition of LTB4: 25 μM
In short: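 Donor whole blood pre-incubated 10 min at 37° C with compound (0.1% DMSO final), then stimulated with […] calcium ionophore A23187 for 20 min at 37° C; stopped on ice with EGTA. Plasma LTB4, TxB2 and PGE2 measured by RIA or ELISA as ng/10^6 neutrophils; effects expressed as percent change from control.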

[2] = target: T1, human synovial fluid PLA2 (Homo sapiens, UniProt P14555); experiment: in vitro isolated phospholipase A2 assay, human synovial fluid PLA2 (Example 74); format: biochemical; set-up: inhibition / % Inhibition, HSF (human synovial fluid): dose or concentration left out as unconfirmed; details: for inhibition: read-out: % Inhibition, HSF (human synovial fluid)
T1 sequence (P14555 21-144): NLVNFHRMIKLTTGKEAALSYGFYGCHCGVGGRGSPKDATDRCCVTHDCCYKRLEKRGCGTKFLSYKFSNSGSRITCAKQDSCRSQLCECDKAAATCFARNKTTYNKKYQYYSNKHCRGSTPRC
In short: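 Human synovial fluid PLA2 (purified) acts on ³H-arachidonate-labelled E. coli substrate, 10 minutes at 37° C with shaking; stopped with tetrahydrofuran. Released arachidonic acid is isolated on NH2 columns, eluted with tetrahydrofuran/2% acetic acid and quantitated by β-counting against a total-counts sample.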

[3] = target: T2, LTD4 (isolated guinea pig trachea) (Cavia porcellus, UniProt Q2NNR5); experiment: in vitro isolated guinea pig trachea assay, LTD4 antagonism (Example 77); set-up: from tissue; host or cells: isolated trachea rings of male Hartley guinea pigs; species or system guinea pig (male Hartley); details: Table VII; 1 × 10^-5 M
T2 sequence (Q2NNR5 1-340): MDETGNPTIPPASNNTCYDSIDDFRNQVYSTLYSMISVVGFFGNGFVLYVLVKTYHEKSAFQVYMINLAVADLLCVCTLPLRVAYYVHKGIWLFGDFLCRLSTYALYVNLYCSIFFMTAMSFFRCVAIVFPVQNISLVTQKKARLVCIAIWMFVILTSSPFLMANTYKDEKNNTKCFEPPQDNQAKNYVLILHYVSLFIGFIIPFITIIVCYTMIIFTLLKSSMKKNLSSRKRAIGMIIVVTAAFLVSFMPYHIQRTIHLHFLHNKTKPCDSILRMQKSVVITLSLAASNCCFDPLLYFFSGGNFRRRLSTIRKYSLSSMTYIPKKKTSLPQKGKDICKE
Description: The LTD4 antagonist activity of the compounds of the invention is assessed in the in vitro isolated guinea pig trachea assay. This assay is carried out as follows: Male Hartley guinea pigs (350-400 g) are euthanized by a blow to the head, the neck is opened and the trachea removed. The trachea is maintained in aerated physiological salt solution, cleared of connective tissue and fat and cut into tings approximately 2 nxn in width (usually containing two cartilaginous segments per ting). Two pieces of silk suture are then passed through the lumen of the tracheal ring and are tied around the cartilage, one on each side of the trachealis muscle. The tracheal ting is suspended between a glass hook and a force […] transducer in a 10 mL organ bath for measurement of isometric tension. […] The tracheal […] maintained at 2 g resting tension and equilibrated for 45 minutes (with frequent washing and readjustment of resting tension). The tracheal rings are first contracted by the addition of carbachol (3×10^-6 M), to determine tissue responsiveness and establish a reference contraction. On attainment of a stable level of contraction (approximately 30 minutes), the tissues are washed several times until baseline tension has been restored and then re-equilibrated for 30 minutes. The tissues are then incubated for 45 minutes with a test antagonist (either 1×10^-6 M or 1×10^-5 M) or […] of an appropriate solvent control (control, non-treated). One tissue in each group serves as the control. Twenty minutes prior to the construction of the LTD4 cumulative concentration-response curve, L-[…]×10^-2 M final bath concentration) is added to inhibit bioconversion of LTD4 to LTE4. Only one LTD4 concentration-response curve is constructed in each tissue. All responses to LTD4 in an individual tissue are measured as a percentage of the reference contraction of that tissue to carbachol. LTD4 antagonist activity is determined by comparison of the concentration response curves of LTD4 in the presence and absence of antagonist. Assessment of the relative rightward shift of the antagonist treated curve relative to the solvent (control) treated tissue is calculated as a concentration ratio (Eq. A) and used in subsequent calculations to derive an antagonist pKB value (Eqs B and C). […] If a compound is found to be active and/or depress the maximal response to LTD4, then a range of concentrations of the test compound should be used generating multiple concentration ratios which would then be used to perform a Schild analysis, and determination of a pA2 value where appropriate.

[4] = system: synthesis of LTB4 by rat glycogen-elicited polymorphonuclear leukocytes (PMN); experiment: inhibition of LTB4 synthesis by rat glycogen-elicited PMN (Example 72); format: cell-based, rat (female Wistar); details: Leukocyte; for inhibition at 10000 µM: at 10 mM, negative number denotes potentiation; for inhibition at 500 µM: at 0.5 mM
Excerpt: This is especially true with respect to 5,12-diHETE, which is also denoted as LTB4 lsee Ford-Hitchinson, J. Roy. Soc. Med., 74, 831 (1981)]. Compounds which inhibit the PLA2 -mediated release of arachidonic acid thereby effectively prevent the oxidation of arachidonic acid to the various leukotriene products via the lipoxygenase cascade. Accordingly, the specificity of action of PLA2 inhibitors can be determined by the activity of test compounds in this assay, which measures the ability of compounds to inhibit the synthesis of LTB4 by rat glycogen-elicited polymorphonuclear leukocytes (PMN) in the presence of exogenous substrate.
The assay is carded out as follows:
(§1) Rat polymorphonuclear leukocytes (PMNs) are obtained from female Wistar rats (150-200 g) which receive an injection of 6% glycogen (10 ml i.p.). Rats are sacrificed 18-24 hours post injection by CO2 asphyxiation and the elicited cells are harvested by peritoneal lavage using physiological saline (0.9% NaC1). The exudate is centrifuged at 400 ×g for 10 minutes. The supernatant fluid is discarded and the cell pellet is resuspended to a concentration of 2.0×10^7 cells/mL in HBSS containing Ca^++ and Mg^++ and 10 mM L-cysteine.
(§2) To 1 mL aliquots of cell suspension, test drugs or vehicle are added, then preincubated at 37° C. for 10 minutes. A23187 (1 mM), [^3 H]-AA (3.0 mCi/mL) and unlabeled AA (1 mM) are then added and the samples are further incubated for 10 minutes. The reaction is terminated by centrifugation and pelleting cells. Supernatants are then analyzed by HPLC analysis on a 15 cm×4.6 mm ID supelcosil LC-18 (Supelco)(3M) column, using a two solvent system at a flow rate of 1.4 mL total flow as follows:
Gradient: (system is equilibrated with Solvent A)
Percent solvent changes are accomplished in a linear fashion.
Injections: […] of each supernatant is injected directly onto column and ^3 H arachidonic acid metabolites are monitored using an on-line radioactivity detector (Ramona, IN/U S, Fairfield, NJ).
Standards: 10^4 -2.0×10^4 dpm of eicosanoids of interest are injected in […] EtOH cocktail.
Co-chromatography with standard [^3 H] leukotriene B4 (LTB4) in medium of stimulated PMN exposed to drug is compared to that found in medium of stimulated cells exposed to no drug, generating percent inhibition.
Results are expressed as percent inhibition at a given compound dose or as an IC50 value.

[5] = system: cyclooxygenase (PGE2 synthesis) in rat polymorphonuclear leukocytes (PMN); experiment: inhibition of PGE2 synthesis (cyclooxygenase) by rat glycogen-elicited PMN (Example 73); format: cell-based, rat (female Wistar); details: Leukocyte, * (negative) denotes a potentiation; for inhibition at 10000 µM: at 10 mM, read-out: % Inhibition (PGE2 synthesis); for inhibition at 500 µM: at 0.5 mM
Description: as §1, §2
In this assay, the procedure of Example 72 is carried out as described. However, in order to determine cyclooxygenase activity, the samples are cochromatographed with authentic reference [^3 H]-PGE2.
The results be calculated as in Example 72 and presented below: […]

[6] = system: carrageenan paw edema; experiment: rat carrageenan paw edema assay (Example 78); format: in vivo, rat (male Sprague-Dawley)
Description: The compounds of the invention are further tested in the rat carrageenan paw edema assay to determine their ability to inhibit the acute inflammatory response.
This assay is carried out as follows: 140-180 g Male Sprague-Dawley rats, in groups of 6 animals are injected subcutaneously in the right paw with 0.1 mL of 1% carrageenan at zero time. Mercury plethysmographic readings (mL) of the paw are made at zero time and 3 hours later. Test compounds are suspended or dissolved in 0.5% methylcellulose and given perorally 1 hour prior to carrageenan administration.
The increase in paw volume (edema in mL) produced by the carrageenan is measured. Paw edema is calculated (3 hour volume minus zero time volume), and percent inhibition of edema is determined. Unpaired Student's t-test is used to determine statistical significance.

[7] = system: paw edema induced by PLA2 from the diamond back cotton mouth snake (A. piscivorus piscivorus); experiment: in vivo PLA2 murine paw edema assay (Example 75); set-up: species or system mouse (male CD-1); details: 30 mg/kg i.p.; 30 min
[8] = target: T3, human platelet PLA2 (Homo sapiens, UniProt P14555); experiment: in vitro isolated phospholipase A2 assay, human platelet PLA2 (Example 74); format: biochemical; set-up: dose or concentration left out as unconfirmed; details: read-out: % Inhibition, HP (human platelet)
T3 construct: Semi-purified human platelet acid extract PLA2; from tissue; host or cells: human platelets (semi-purified acid extract)
T3 sequence (P14555 21-144): T1 sequence (P14555 21-144)
In short: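 Semi-purified human platelet acid-extract PLA2 (pH 4.5 acetate) was incubated with ³H-arachidonate-labelled E. coli substrate for 10 min at 37° C. The reaction was terminated with tetrahydrofuran. Released arachidonic acid was isolated on NH2 columns and quantified by β-counting against total counts.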

SMILES: CC1(C)OCCc2c1[nH]c1ccc(OCc3ccc4ccccc4n3)cc21 [Example 14, 1,3,4,9-Tetrahydro-1,1-dimethyl-6-(2-quinolinylmethoxy)pyrano[3,4-b]indole]
- inhibition at 10000 µM [4]: 91%
- inhibition at 10000 µM [5]: -48%
- % Inhibition 50 mg/kg (peroral) ([6]; 50 mg/kg peroral, 3 hours after carrageenan): 27%

SMILES: Cc1c(CC(=O)O)c2cc(OCc3ccc4ccccc4n3)ccc2n1Cc1ccc2ccccc2n1 [Example 18, 2-Methyl-5-(2-quinolinylmethoxy)-1,2-(quinolinylmethy)-1H-indole-3-acetic acid]
- inhibition at 500 µM [4]: 88%
- % Change in Edema [7]: -19%
- inhibition [8]: 47%
- IC50 ([2]; Table III, read-out: IC50 HSF (human synovial fluid)): 27 µM
- inhibition [2]: 30%
- inhibition at 500 µM [5]: -31%
- Kb [3]: 1410 nM

SMILES: CCc1cccc2c3c([nH]c12)C(CC)(CC(=O)O)OCC3 (stereo not drawn) [etodolac, reference compound]
- inhibition at 500 µM [4]: 21%
- inhibition at 500 µM [5]: 100%
- ED50 ([6]; Rattus norvegicus, 3 h, oral, Table VIII): 23 mg/kg

SMILES: Cc1c(CC(=O)O)c2cc(OCc3ccc4ccccc4n3)ccc2n1Cc1ccc(Cl)cc1 [Example 43, 1-[(4-Chlorophenyl)methyl]-2-methyl-5-(2-quinolinylmethoxy)-1H-indole-acetic acid tromethamine salt hemi-ethanolate]
- Kb [3]: 1000 nM

SMILES: CCC1(CC(=O)O)OCCc2c1[nH]c1ccc(OCc3ccc4ccccc4n3)cc21 (stereo not drawn) [Example 9, 1-Ethyl-1,3,4,9-tetrahydro-6-(quinolinylmethoxy)pyrano[3,4-b]indole-1-acetic acid]
- inhibition at 10000 µM [4]: 96%
- inhibition at 10000 µM [5]: 75%
- Kb [3]: 550 nM

Continued, in another order:

- IC50 ([1]; human whole blood, read-out: IC50 (inhibition of LTB4)): 19.9 µM
- inhibition [2]: 12%
- Kb [3]: 2510 nM
SMILES: CCN(CC)C(=O)Cc1c(C)n(Cc2ccccc2)c2ccc(OCc3nc4ccccc4s3)cc12 [Example 52, 5-(2-Benzothiazolylmethoxy)-N,N-diethyl-1-(phenylmethyl)-2-methyl-1H-indole-3-acetamide]
- % Inhibition of LTB4 [1]: 68%

- inhibition [2]: 2%
- Kb [3]: 3980 nM
SMILES: CCOC(=O)Cc1c(C)n(Cc2ccccc2)c2ccc(OCc3nc4ccccc4s3)cc12 [Example 50, 5-(2-Benzothiazolylmethoxy)-1-(phenylmethyl)-2-methyl-1H-indole-3-acetic acid ethyl ester]
- % Inhibition of LTB4 [1]: 95%
